Tests used:
[1] = system: Total ATXN3 (tATXN3) protein; test: Endogenous Total ATXN3 (tATXN3) Protein Assay (MSD immunoassay of cell lysates); type: cell-based; details: cells incubated with compound 48 h; 7-point concentration curve; MSD detection in cell lysate
Procedure: Endogenous Total ATXN3 (tATXN3) Protein Assay
Meso Scale Discovery (MSD) 96-well or 384-well plates were coated overnight at 4° C. with Ataxin 3 mouse monoclonal antibody (Invitrogen, MA3-082) at a concentration of 0.5 μg/mL in PBS (30 μL per well). Plates were then washed three times with 300 μL wash buffer (0.05% TWEEN®-20, polyethylene glycol sorbitan monolaurate, in PBS) and blocked (Meso Scale Diagnostics, R93BA-1; 5% BSA in PBS) for 2 h at room temperature with rotational shaking and then washed three times with wash buffer.
(§1) Test compounds were serially diluted 3.16-fold in 100% DMSO to generate a 7-point concentration curve. Aliquots of 0.5 μL of diluted compounds were transferred to a 96-well flat bottom plate by a liquid handler. An aliquot of 0.5 μL DMSO was also transferred to separate wells and used as controls. Duplicate samples were set up for each compound concentration and for the DMSO control.
Cells were thawed and incubated in cell culture media (DMEM, 10% FBS, and 1% antibiotic cocktail) for 72 h. Cells were trypsinized, counted, and re-suspended to a concentration of 100,000 cells/mL in cell culture media. A 100 μL aliquot of the cell suspensions were plated at 10,000 cells per well in the compound containing 96 well microtiter plate and incubated for in a cell culture incubator (37° C., 5% CO2, 100% relative humidity). After 48 h, the medium was removed and 50-100 μL of lysis buffer (Meso Scale Diagnostics, R60TX-2) containing 1× halt protease inhibitor cocktail of (Thermo Scientific, Halt™ Protease Inhibitor Cocktail, 78430) per well was added to cells to provide a “cell lysate”. The plate was placed on a shaker at 4° C. for 30 minutes, then stored at −80° C.
Cell lysate samples (25 μL) were transferred to the antibody-coated MSD plate and incubated overnight at 4° C. After removal of the lysates, the plate was washed three times with wash buffer, and 25 μL of Ataxin 3 recombinant rabbit monoclonal antibody (Invitrogen, #702788) secondary antibody (diluted to 0.25 μg/mL in 0.05% TWEEN®-20 in blocking buffer) was added to each well and incubated with shaking for 1-2 h at room temperature. Following incubation with the secondary antibody, the wells were rinsed with wash buffer and then […] Anti Rabbit Antibody Goat SULFO-TAG Labeled (Meso Scale Diagnostics, R32AB-1) detecting antibody (diluted to 0.25 μg/mL in 0.05% TWEEN®-20 in blocking buffer) was added to each well and incubated with shaking for 1 h at room temperature. After rinsing three times with wash buffer, 150 μL of Read Buffer T with surfactant (tris-based buffer containing tripropylamine, Meso Scale Diagnostics, R92TC-1) were added to each empty well, and the plate was imaged on a SI 6000 imager (MSD) according to manufacturers' instructions provided for 96- or 384-well plates.

[2] = system: ATXN3 pre-mRNA; test: RT-qPCR Assay to Quantify Exon 4 Skipping in ATXN3 pre-mRNA in Cells; type: cell-based; details: cells incubated with compound 24 h, 7-point concentration curve, GAPDH control
Procedure: as §1, with “RT-qPCR Assay to Quantify Exon 4 Skipping in ATXN3 pre-mRNA in Cells Test” for “Test”
Cells were thawed and incubated in cell culture media (DMEM, 10% FBS, and 1% antibiotic cocktail) for 72 h. Cells were trypsinized, counted, and re-suspended to a concentration of 100,000 cells/mL in cell culture media. A 100 μL aliquot of the cell suspensions were plated at 10,000 cells per well in the compound containing 96 well microtiter plate and incubated for in a cell culture incubator (37° C., 5% CO2, 100% relative humidity).
After 24 h, media was aspirated from the cells and 50 μL of the RCL2 lysis buffer (10 mM Tris-HCL pH 7.4, 150 mM NaCl, 0.33% IGEPAL® CA-630) was added to each well and incubated at room temperature for 1 min. Chilled nuclease free water (50 μL per well) was added and the plates were immediately transferred on ice. After 1 min on ice, plates were frozen at −80° C. overnight.
Preparation of RT-qPCR Reaction Mixture:
An aliquot of 2 μL/well of the cell lysates was transferred using the liquid handler to the Armadillo 384-Well PCR plate containing 8 μL/well of the RT-qPCR reaction mixture that was prepared as detailed above. The plates were then sealed with MicroAmp™ Optical Adhesive Film followed by spinning down for 1 min and placed in the CFX384 thermocycler (BioRad).
The RT-qPCR was carried out at the following temperatures for the indicated time: • Step 1: 48° C. (30 min) • Step 2: 95° C. (10 min) • Step 3: 95° C. (15 sec) • Step 4: 60° C. (1 min); then, repeated Steps 3 and 4 for a total of 40 cycles.
The percent exon 4 skipping was calculated for each dose of compound treatment using Equations 1 and 2.
Data were fit to a dose response curve and the IC50 was interpolated using XLfit® statistical and curve fitting package.
An IC50 value between >2.0 μM and ≤3.0 μM is indicated by one star (*). […] IC50 value between >0.5 μM and ≤1.0 μM is indicated by four stars (****). An IC50 value ≤0.5 μM is indicated by five stars (*****).

| IC50 [1] | IC50 [2] | IC50 (average), total ATXN3 protein [1] | IC50, exon 4 skipping in ATXN3 pre-mRNA [2] | Compound |
| --- | --- | --- | --- | --- |
| ≤ 500 nM | ≤ 500 nM | – | – | N[C@H](Cc1sc2c(NCc3ccco3)cc(Cl)nc2c1Cl)C(=O)Nc1ccccc1 [Cpd 122, 3-(3,5-dichloro-7-{[(furan-2-yl)methyl]amino}thieno[3,2-b]pyridin-2-yl)-N-phenyl-D-alaninamide] |
| 500 to 1000 nM | ≤ 500 nM | – | – | C[C@H](N)C(F)(F)c1sc2c(NCc3cccs3)cc(Cl)nc2c1Cl [Cpd 132, 2-[(2S)-2-amino-1,1-difluoropropyl]-3,5-dichloro-N-[(thiophen-2-yl)methyl]thieno[3,2-b]pyridin-7-amine] |
| ≤ 500 nM | ≤ 500 nM | – | – | Cc1c(C[C@@H](N)[C@H](C)F)sc2c(NCc3cccs3)cc(Cl)nc12 [Cpd 126, 2-[(2R,3S)-2-amino-3-fluorobutyl]-5-chloro-3-methyl-N-[(thiophen-2-yl)methyl]thieno[3,2-b]pyridin-7-amine] |
| ≤ 500 nM | ≤ 500 nM | – | – | CSC[C@H](N)Cc1sc2c(NCc3ccco3)cc(Cl)nc2c1Br [Cpd 118, 2-[(2R)-2-amino-3-(methylsulfanyl)propyl]-3-bromo-5-chloro-N-[(furan-2-yl)methyl]thieno[3,2-b]pyridin-7-amine] |
| – | – | inactive | inactive | C[C@H](N)C(O)c1sc2c(NCc3cccs3)cc(Cl)nc2c1Br (stereo partly drawn) [Cpd 155, (2S)-2-amino-1-(3-bromo-5-chloro-7-{[(thiophen-2-yl)methyl]amino}thieno[3,2-b]pyridin-2-yl)propan-1-ol] |
| ≤ 500 nM | ≤ 500 nM | – | – | CS(=O)(=O)C[C@H](N)Cc1sc2c(NCc3ccco3)cc(Cl)nc2c1Br [Cpd 117, 2-[(2R)-2-amino-3-(methanesulfonyl)propyl]-3-bromo-5-chloro-N-[(furan-2-yl)methyl]thieno[3,2-b]pyridin-7-amine] |
| ≤ 500 nM | ≤ 500 nM | – | – | Cc1c(C[C@@H](N)C(=O)Nc2ccncc2)sc2c(NCc3ccco3)cc(Cl)nc12 [Cpd 140, 3-(5-chloro-7-{[(furan-2-yl)methyl]amino}-3-methylthieno[3,2-b]pyridin-2-yl)-N-pyridin-4-yl-D-alaninamide] |
| – | – | inactive | inactive | C[C@H](N)C(O)c1sc2c(NCc3ccco3)cc(Cl)nc2c1Br (stereo partly drawn) [Cpd 153, (2S)-2-amino-1-(3-bromo-5-chloro-7-{[(furan-2-yl)methyl]amino}thieno[3,2-b]pyridin-2-yl)propan-1-ol] |
| ≤ 500 nM | ≤ 500 nM | – | – | N[C@@H](CCF)Cc1sc2c(NCc3ccco3)cc(Cl)nc2c1Cl [Cpd 93, 2-[(2S)-2-amino-4-fluorobutyl]-3,5-dichloro-N-[(furan-2-yl)methyl]thieno[3,2-b]pyridin-7-amine] |
| ≤ 500 nM | ≤ 500 nM | – | – | COC[C@H](N)Cc1sc2c(NCc3ccco3)cc(Cl)nc2c1Br [Cpd 44, 2-[(2R)-2-amino-3-methoxypropyl]-3-bromo-5-chloro-N-[(furan-2-yl)methyl]thieno[3,2-b]pyridin-7-amine] |
| ≤ 500 nM | ≤ 500 nM | – | – | Cc1c(C[C@@H](N)C(=O)Nc2cnccn2)sc2c(NCc3ccco3)cc(Cl)nc12 [Cpd 135, 3-(5-chloro-7-{[(furan-2-yl)methyl]amino}-3-methylthieno[3,2-b]pyridin-2-yl)-N-pyrazin-2-yl-D-alaninamide] |
| 1000 to 1500 nM | – | – | inactive | N[C@H](Cc1sc2c(NCc3cccs3)cc(Cl)nc2c1Br)CC(F)F [Cpd 107, 2-[(2S)-2-amino-4,4-difluorobutyl]-3-bromo-5-chloro-N-[(thiophen-2-yl)methyl]thieno[3,2-b]pyridin-7-amine] |
| ≤ 500 nM | ≤ 500 nM | – | – | Cc1c(C[C@@H](N)CC#N)sc2c(NCc3cccs3)cc(Cl)nc12 [Cpd 105, (3S)-3-amino-4-(5-chloro-3-methyl-7-{[(thiophen-2-yl)methyl]amino}thieno[3,2-b]pyridin-2-yl)butanenitrile] |
| 1000 to 1500 nM | 2000 to 3000 nM | – | – | Cc1c(C[C@@H](N)CF)sc2c(NCc3cccs3)cc(Cl)nc12 [Cpd 91, 2-[(2R)-2-amino-3-fluoropropyl]-5-chloro-3-methyl-N-[(thiophen-2-yl)methyl]thieno[3,2-b]pyridin-7-amine] |
| ≤ 500 nM | ≤ 500 nM | – | – | CC[C@H](N)Cc1sc2c(NCc3cccs3)cc(Cl)nc2c1Cl [Cpd 83, 2-[(2S)-2-aminobutyl]-3,5-dichloro-N-[(thiophen-2-yl)methyl]thieno[3,2-b]pyridin-7-amine] |
| ≤ 500 nM | ≤ 500 nM | – | – | C[C@H](N)C(F)c1sc2c(NCc3cccs3)cc(Cl)nc2c1Cl (stereo partly drawn) [Cpd 130, 2-[(2S)-2-amino-1-fluoropropyl]-3,5-dichloro-N-[(thiophen-2-yl)methyl]thieno[3,2-b]pyridin-7-amine] |
| ≤ 500 nM | ≤ 500 nM | – | – | N#CC[C@H](N)Cc1sc2c(NCc3ccco3)cc(Cl)nc2c1Br [Cpd 103, (3S)-3-amino-4-(3-bromo-5-chloro-7-{[(furan-2-yl)methyl]amino}thieno[3,2-b]pyridin-2-yl)butanenitrile] |
| ≤ 500 nM | ≤ 500 nM | – | – | CC[C@H](N)Cc1sc2c(NCc3cccs3)cc(Cl)nc2c1Br [Cpd 73, 2-[(2S)-2-aminobutyl]-3-bromo-5-chloro-N-[(thiophen-2-yl)methyl]thieno[3,2-b]pyridin-7-amine] |

| Compound | IC50 [1] | IC50 [2] | IC50 (average), total ATXN3 protein [1] | IC50, exon 4 skipping in ATXN3 pre-mRNA [2] |
| --- | --- | --- | --- | --- |
| C[C@H](N)Cc1sc2c(NCc3ccco3)cc(Cl)nc2c1Cl [Cpd 36, 2-[(2S)-2-aminopropyl]-3,5-dichloro-N-[(furan-2-yl)methyl]thieno[3,2-b]pyridin-7-amine] | ≤ 500 nM | ≤ 500 nM | – | – |
| Cc1c(C[C@H](C)N)sc2c(NCc3ccncc3F)cc(Cl)nc12 [Cpd 35, 2-[(2S)-2-aminopropyl]-5-chloro-N-[(3-fluoropyridin-4-yl)methyl]-3-methylthieno[3,2-b]pyridin-7-amine] | ≤ 500 nM | ≤ 500 nM | – | – |
| C[C@H](N)Cc1sc2c(NCc3cccs3)cc(Cl)nc2c1Br [Cpd 53, 2-[(2S)-2-aminopropyl]-3-bromo-5-chloro-N-[(thiophen-2-yl)methyl]thieno[3,2-b]pyridin-7-amine] | ≤ 500 nM | ≤ 500 nM | – | – |
| C[C@H](N)Cc1sc2c(NCc3ccco3)cc(Cl)nc2c1C1CC1 [Cpd 51, 2-[(2S)-2-aminopropyl]-5-chloro-3-cyclopropyl-N-[(furan-2-yl)methyl]thieno[3,2-b]pyridin-7-amine] | ≤ 500 nM | ≤ 500 nM | – | – |

From US20240051968A1, “METHODS FOR TREATING SPINOCEREBELLAR ATAXIA TYPE 3” (PTC Therapeutics, Inc., priority 2021, published 2024)
